In patent US20220105183A1, “MICRO-NANO STRUCTURE FORMED BY SELF-ASSEMBLING ORGANIC SMALL MOLECULE COMPOUND AND USE THEREOF” (Qingdao University of Science and Technology, priority 2018, published 2022):

Legend:
[1] = Photothermal stability, repeated 808 nm irradiation and cooling; format: physicochemical; conditions: sample No. 3, 20 μM, 808 nm laser 9 minutes, natural cooling, 5 times
Experimental: We selected sample No. 3 to test the photothermal stability experiment. As shown in the right figure of FIG. 8, sample No. 3 was irradiated with 808 nm laser for 9 minutes and then the temperature increased from room temperature 30° C. to 62° C., and then allowed to naturally cool down to room temperature, and irradiated with 808 nm laser again for 9 minutes, then naturally cooled down, and repeated for 5 times. […] After 9 minutes of irradiation, the temperature was raised by […], and then returned to room temperature.

HeLa cells = assay: Cell photothermal experiment; format: cell-based
Experimental: HeLa cells were digested from the culture flask with trypsin, centrifuged, added to a DMEM medium containing 10% serum and 1% double antibody, and mixed well. 20 μL of cells were taken and stained with Compound II-1 (20 μM) for 30 minutes. After taking it out, it was centrifuged and rinsed twice with PBS. After centrifuging, 20 μL of culture medium and 20 μL of trypan blue were added. 20 μL was taken from the mixture to the cell count plate and photographed under fluorescence microscope. In the absence of laser irradiation, bright live cells were observed under the microscope, and the cell survival rate was 92%. When irradiated with 808 nm laser for 6 minutes, almost all the blue dead cells were observed under the microscope, and the cell death rate was as high as 100%. HeLa cells were cultured in 96-well plates, 10^4 cells per well, and live/dead staining after 24 h. The cells were irradiated with an 808 nm laser for 6 minutes, and the photographs were observed under a fluorescent microscope. […] It can be seen that the toxicity of the compound itself is extremely small, but its photothermal effect is particularly lethal to cancer cells, and it has bright prospects in the future clinical application of photothermal treatment of cancer. Other compounds of the present invention also have similar photothermal therapeutic effects.

4T1 cells [2] = assay: Fluorescence imaging in subcutaneous metastasis model mice; format: in vivo, nude mice; conditions: 200 μL (1 mg/mL) tail vein
Experimental: The left side of 6-week-old female nude mice was injected subcutaneously with […] 4T1 cells to grow the tumor volume to 60 mm^3.
In the experimental group, 200 μL of II-1 (1 mg/mL) was injected into the tail vein of mice. After injection, the living imager was used to monitor at different times. […] Then they were dissected, and the heart, liver, spleen, lung, kidney and tumor were imaged by fluorescence. […] This proves that Compound II-1 targets the tumor site very well.

4T1 cells [3] = assay: Photothermal imaging and photothermal treatment in subcutaneous metastasis model mice; format: in vivo, nude mice
Experimental: In the experimental group, 200 μL of II-1 (300 μmoL) was injected into the mouse through the tail vein, and the tumor site of the mouse was irradiated with an 808 nm laser for 10 minutes, while taking photos with a photothermal imaging instrument.
The nude mice were divided into 4 groups. In the first group, 200 μL of II-1 was injected into the mouse through the tail vein, and the tumor site of the mouse was irradiated with an 808 nm laser for 5 minutes. In the second group, 200 μL of II-1 (300 μmol) was injected, no laser irradiation. In the third group, saline was injected and laser irradiated for 5 minutes. In the fourth group, saline was injected, no laser irradiation. The tumor volume of each group of mice was measured daily with a vernier caliper, and the recording was continued for 30 days.

[4] = Fluorescence imaging and photothermal treatment in sentinel lymphatic metastasis model mice; format: in vivo
Experimental: (§1) Cell preparation: The cells in the culture flask were digested with trypsin and placed in a centrifuge tube for use. The supernatant was discarded by centrifugation and counted. Then a large amount of medium was added and it was placed in a foam box to be taken to the company. The supernatant was removed by centrifugation, and about 3.5 mL of serum-free medium was added. It was prepared for injection.
(§2) After that, small animal fluorescence imaging and photothermal therapy can be performed.
(§3) Fluorescence imaging for the small animal was performed on the established mouse metastasis model. Using tail vein injection and intratumoral injection (FIG. 22), fluorescence detection was performed every 1 hour for a total of 5 hours.
(§4) The mice were treated with photothermal therapy after injection of tumor cells on the right hind foot pad with obvious sentinel lymph nodes (about 20 days). In this experiment, mice were randomly divided into 3 groups, each group 5 mice, saline+laser irradiation control group, intratumoral injection+laser irradiation experimental group and tail vein injection+laser irradiation experimental group, respectively.
(§5) After photothermal treatment of the mice, the mice were photographed and their weights were recorded every 5 days. […] After the mice were stained with ink on the lungs on day 20, the lungs of the mice were photographed.

T4 cells = assay: as above; format: in vivo; conditions: for tumor metastasis in the lungs, ink staining: day 20; for temperature at sentinel lymph nodes under laser: 808 nm laser (1.5 W/cm2) 10 minutes
Experimental: as §1, §2, §3, §4, §5

[5] = Photoacoustic imaging test in aqueous solution; format: physicochemical; conditions: 5, 10, 20 and 40 μM in water
Experimental: In the experimental group, 2.5, 5, 10 and 20 μL of Compound II-1 (concentrations of 5, 10, 20 and 40 μM, respectively) were respectively added to 1 mL of water, and the test solution was placed in the prosthesis for photoacoustic imaging test.

[6] = Group 1: 200 μL tail vein, 808 nm laser 5 minutes
[7] = experimental group, 20 days after the experiment

## CCN1C(=CC=C2CCCC(C=CC3=C(C#N)C(=C(C#N)C#N)OC3(C)C)=C2Cl)C(C)(C)c2ccccc21 [II-1]
[1]
  temperature raised by, every time in 5 repeated irradiations: 25 °C
  temperature reached every time in 5 repeated irradiations: at least 55 °C
HeLa cells; HeLa in 96-well plates, 808 nm laser 6 minutes
  dead cells, live/dead staining: 100%
HeLa cells; HeLa in 96-well plates, only the compound added, without laser irradiation
  live/dead staining, compound only: the cells were all alive
HeLa cells; HeLa, 20 μM for 30 minutes, 808 nm laser 6 minutes, trypan blue
  cell death rate: 100%
HeLa cells; HeLa, 20 μM for 30 minutes, no laser irradiation, trypan blue
  cell survival rate: 92%
4T1 cells [2]; after 24 hours
  whole-body fluorescence distribution: all enriched in the tumor site
4T1 cells [2]; dissected after 24 hours
  fluorescence of dissected heart, liver, spleen, lung, kidney and tumor: the fluorescence was very strong at tumor site, with weak fluorescence in the liver, and no fluorescence in other parts
4T1 cells [2]; within 24 hours
  abnormalities in nude mice: no abnormalities such as spasms and convulsions occurred
4T1 cells [3]; 200 μL (300 μmoL) tail vein, 808 nm laser 10 minutes
  temperature of tumor site under laser irradiation: 60 °C
4T1 cells [3]; [6]
  day on which the tumor ulcer had completely healed: 16 days
  tumor after photothermal treatment: the tumor disappeared after laser irradiation, and there was no recurrence within 20 days
4T1 cells [3]; experimental group and control group
  body weight: no abnormal change in the body weight
4T1 cells [3]; [7]
  H&E staining of lung and liver: no obvious damage to the lungs and liver
  H&E staining of tumor: the tumor cells had undergone apoptosis
4T1 cells [3]; group 2: 200 μL (300 μmol), no laser irradiation (stated for control groups 2, 3 and 4 together), in 20 days
  growth of tumor volume: 25 times
[4]; intratumoral injection + laser
  body weight: stable in a healthy state
[4]; tail vein injection + laser
  body weight: decreased on the tenth day
T4 cells; intratumoral injection + laser
  scars at the sentinel lymph nodes over time: obviously healed
  tumor metastasis in the lungs, ink staining: no obvious tumor metastasis
T4 cells; intratumoral injection
  temperature at sentinel lymph nodes under laser: significantly higher than that in the saline injection group
T4 cells; intratumoral injection, detection every 1 hour for 5 hours
  entry into the sentinel lymph node, fluorescence: can obviously enter the sentinel lymph node of mice
T4 cells; tail vein injection + laser
  day on which mice died (first): 15 days
  scars at the sentinel lymph nodes over time: showed a tendency to heal
  tumor metastasis in the lungs, ink staining: obvious tumor metastasis
T4 cells; tail vein injection
  temperature at sentinel lymph nodes under laser: significantly higher than that in the saline injection group
[5]
  photoacoustic signal against concentration: the photoacoustic signal increased with the increase of the concentration of Compound II-1
  wavelength of the strongest photoacoustic signal: 710-750 nm
